Measurements: US20150315188A1, “COMPOUNDS AND METHODS FOR TREATMENT OF HYPERTENSION” (MEDIVATION TECHNOLOGIES, INC., priority 2012, published 2015)

Target: T1, Human adrenergic α1B receptor (Homo sapiens, UniProt P35368)
T1 sequence (P35368 1-520): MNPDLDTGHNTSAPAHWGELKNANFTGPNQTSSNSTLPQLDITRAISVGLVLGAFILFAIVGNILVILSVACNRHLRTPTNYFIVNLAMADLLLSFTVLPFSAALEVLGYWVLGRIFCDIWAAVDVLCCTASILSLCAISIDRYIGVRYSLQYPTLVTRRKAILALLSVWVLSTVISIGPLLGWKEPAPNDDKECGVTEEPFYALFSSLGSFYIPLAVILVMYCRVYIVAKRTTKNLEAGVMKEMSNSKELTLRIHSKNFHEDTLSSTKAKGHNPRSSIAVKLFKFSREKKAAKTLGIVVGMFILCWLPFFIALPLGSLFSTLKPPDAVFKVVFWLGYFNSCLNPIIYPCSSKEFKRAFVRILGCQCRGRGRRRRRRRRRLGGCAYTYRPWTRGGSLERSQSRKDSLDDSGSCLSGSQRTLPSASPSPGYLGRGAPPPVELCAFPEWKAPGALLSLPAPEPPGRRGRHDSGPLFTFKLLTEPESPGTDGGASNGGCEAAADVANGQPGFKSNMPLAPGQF
Experiment: Radioligand binding, adrenergic α1B (Protocol Group B)
Set-up: purchased Milipore (Millipore)
Conditions: 0.1 μM compound; Protocol Group B; read-out: Percentage inhibition of ligand binding, Adrenergic α1B (0.1 μM)
How it was run: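 Values are percent inhibition of specific [3H]prazosin (0.3 nM) binding or estimated Ki, from filtration counting. Human α1B recombinant membranes, Tris-HCl pH 7.4 buffer with MgCl2 and EDTA, 60 min at 25 °C, 1% DMSO vehicle; 10 μM prazosin defined nonspecific binding.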

Compound | inhibition at 0.1 µM [%]
Cc1ccc2c(c1)c1c(n2CC(O)c2ccncc2)CNC2CCCC12 (single isomer, unassigned) [34c] | 3
Cc1ccc2c(c1)c1c(n2CC(C)(O)c2ccc(F)cc2)CC2CCC1N2C (single isomer, unassigned) [102b] | 5
CC(O)(Cn1c2c(c3cc(C(F)(F)F)ccc31)CN1CCCC1C2)c1cccnc1 (single isomer, unassigned) [85a] | -9
Cc1cc(F)cc2c3c(n(CC(C)(O)c4cccnc4)c12)CC1CCCN1C3 (single isomer, unassigned) [76d] | 6
CC(O)(Cn1c2c(c3cc(Cl)cc(F)c31)CN1CCCC1C2)c1cccnc1 (single isomer, unassigned) [63c] | 8
CC(O)(Cn1c2c(c3cc(Cl)cc(F)c31)CN1CCCC1C2)c1ccncc1 (single isomer, unassigned) [86c] | -5

Same assay, conditions: 0.3 μM compound; Protocol Group B; read-out: Percentage inhibition of ligand binding, Adrenergic α1B (0.3 μM)

Compound | inhibition at 0.3 µM [%]
Cc1ccc2c(c1)c1c(n2CC(O)c2ccncc2)CNC2CCCC12 (single isomer, unassigned) [34c] | 28
Cc1ccc2c(c1)c1c(n2CC(C)(O)c2ccc(F)cc2)CC2CCC1N2C (single isomer, unassigned) [102b] | 26
CC(O)(Cn1c2c(c3cc(C(F)(F)F)ccc31)CN1CCCC1C2)c1cccnc1 (single isomer, unassigned) [85a] | 4
Cc1cc(F)cc2c3c(n(CC(C)(O)c4cccnc4)c12)CC1CCCN1C3 (single isomer, unassigned) [76d] | 11
CC(O)(Cn1c2c(c3cc(Cl)cc(F)c31)CN1CCCC1C2)c1cccnc1 (single isomer, unassigned) [63c] | 14
CC(O)(Cn1c2c(c3cc(Cl)cc(F)c31)CN1CCCC1C2)c1ccncc1 (single isomer, unassigned) [86c] | 15

Same assay, conditions: Protocol Group B; estimated Ki

Compound | Ki [nM]
Cc1ccc2c(c1)c1c(n2CC(O)c2ccncc2)CNC2CCCC12 (single isomer, unassigned) [34c] | 379

Target: T2, Human adrenergic α2B receptor (Homo sapiens, UniProt P18089)
T2 sequence (P18089 1-450): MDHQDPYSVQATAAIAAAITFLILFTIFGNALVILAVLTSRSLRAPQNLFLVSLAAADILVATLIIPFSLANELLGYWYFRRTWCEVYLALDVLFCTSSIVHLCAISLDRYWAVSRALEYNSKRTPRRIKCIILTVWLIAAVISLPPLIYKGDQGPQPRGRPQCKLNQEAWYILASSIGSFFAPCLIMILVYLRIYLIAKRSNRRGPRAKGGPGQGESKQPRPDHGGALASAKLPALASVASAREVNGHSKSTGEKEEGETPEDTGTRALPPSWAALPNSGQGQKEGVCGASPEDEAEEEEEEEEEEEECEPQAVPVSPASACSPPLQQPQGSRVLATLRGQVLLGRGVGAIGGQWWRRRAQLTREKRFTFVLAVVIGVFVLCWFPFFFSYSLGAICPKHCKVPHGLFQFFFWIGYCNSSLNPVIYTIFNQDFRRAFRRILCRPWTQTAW
Experiment: Radioligand binding, adrenergic α2B (Protocol Group B)
Set-up: purchased Milipore (Millipore)
Conditions: 10 nM compound; Protocol Group B; read-out: Percentage inhibition of ligand binding, Adrenergic α2B (10 nM)
How it was run: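 Compounds at various concentrations in 1% DMSO were tested on recombinant membranes in Tris-HCl pH 7.4 buffer containing MgCl2, CaCl2 and 0.2% BSA.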

Compound | inhibition at 0.01 µM [%]
Cc1ccc2c(c1)c1c(n2CC(O)c2ccncc2)CNC2CCCC12 (single isomer, unassigned) [34c] | 52
CC(O)(Cn1c2c(c3cc(C(F)(F)F)ccc31)CN1CCCC1C2)c1cccnc1 (single isomer, unassigned) [85a] | 9
Cc1cc(F)cc2c3c(n(CC(C)(O)c4cccnc4)c12)CC1CCCN1C3 (single isomer, unassigned) [76d] | 51
CC(O)(Cn1c2c(c3cc(Cl)cc(F)c31)CN1CCCC1C2)c1cccnc1 (single isomer, unassigned) [63c] | 42
CC(O)(Cn1c2c(c3cc(Cl)cc(F)c31)CN1CCCC1C2)c1ccncc1 (single isomer, unassigned) [86c] | 24

Same assay, conditions: 30 nM compound; Protocol Group B; read-out: Percentage inhibition of ligand binding, Adrenergic α2B (30 nM)

Compound | inhibition at 0.03 µM [%]
Cc1ccc2c(c1)c1c(n2CC(O)c2ccncc2)CNC2CCCC12 (single isomer, unassigned) [34c] | 80
CC(O)(Cn1c2c(c3cc(C(F)(F)F)ccc31)CN1CCCC1C2)c1cccnc1 (single isomer, unassigned) [85a] | 42
Cc1cc(F)cc2c3c(n(CC(C)(O)c4cccnc4)c12)CC1CCCN1C3 (single isomer, unassigned) [76d] | 74
CC(O)(Cn1c2c(c3cc(Cl)cc(F)c31)CN1CCCC1C2)c1cccnc1 (single isomer, unassigned) [63c] | 71
CC(O)(Cn1c2c(c3cc(Cl)cc(F)c31)CN1CCCC1C2)c1ccncc1 (single isomer, unassigned) [86c] | 53

Same assay, conditions: 0.1 μM compound; Protocol Group B; read-out: Percentage inhibition of ligand binding, Adrenergic α2B (0.1 μM)

Compound | inhibition at 0.1 µM [%]
Cc1ccc2c(c1)c1c(n2CC(O)c2ccncc2)CNC2CCCC12 (single isomer, unassigned) [34c] | 90

Same assay, conditions: Ki α2B, Protocol Group B; estimated Ki

Compound | Ki [nM]
Cc1ccc2c(c1)c1c(n2CC(C)(O)c2ccc(F)cc2)CC2CCC1N2C (single isomer, unassigned) [102b] | 19.3

Same assay, conditions: Protocol Group B; estimated Ki; read-out: Ki α2B

Compound | Ki [nM]
Cc1ccc2c(c1)c1c(n2CC(O)c2ccncc2)CNC2CCCC12 (single isomer, unassigned) [34c] | 4.6
CC(O)(Cn1c2c(c3cc(C(F)(F)F)ccc31)CN1CCCC1C2)c1cccnc1 (single isomer, unassigned) [85a] | 32.6
Cc1cc(F)cc2c3c(n(CC(C)(O)c4cccnc4)c12)CC1CCCN1C3 (single isomer, unassigned) [76d] | 4.55
CC(O)(Cn1c2c(c3cc(Cl)cc(F)c31)CN1CCCC1C2)c1cccnc1 (single isomer, unassigned) [63c] | 12.4
CC(O)(Cn1c2c(c3cc(Cl)cc(F)c31)CN1CCCC1C2)c1ccncc1 (single isomer, unassigned) [86c] | 13

Same assay, conditions: read-out: Percentage inhibition of ligand binding, Adrenergic α2B (10 nM), 10 nM compound; Protocol Group B

Compound | inhibition at 0.01 µM [%]
Cc1ccc2c(c1)c1c(n2CC(C)(O)c2ccc(F)cc2)CC2CCC1N2C (single isomer, unassigned) [102b] | 28

Same assay, conditions: read-out: Percentage inhibition of ligand binding, Adrenergic α2B (30 nM), 30 nM compound; Protocol Group B

Compound | inhibition at 0.03 µM [%]
Cc1ccc2c(c1)c1c(n2CC(C)(O)c2ccc(F)cc2)CC2CCC1N2C (single isomer, unassigned) [102b] | 56

Same assay, conditions: read-out: Percentage inhibition of ligand binding, Adrenergic α2B (0.1 μM), 0.1 μM compound; Protocol Group B

Compound | inhibition at 0.1 µM [%]
Cc1ccc2c(c1)c1c(n2CC(C)(O)c2ccc(F)cc2)CC2CCC1N2C (single isomer, unassigned) [102b] | 70

Target: T3, Human adrenergic α2A receptor (Homo sapiens, UniProt P08913)
T3 sequence (P08913 1-465): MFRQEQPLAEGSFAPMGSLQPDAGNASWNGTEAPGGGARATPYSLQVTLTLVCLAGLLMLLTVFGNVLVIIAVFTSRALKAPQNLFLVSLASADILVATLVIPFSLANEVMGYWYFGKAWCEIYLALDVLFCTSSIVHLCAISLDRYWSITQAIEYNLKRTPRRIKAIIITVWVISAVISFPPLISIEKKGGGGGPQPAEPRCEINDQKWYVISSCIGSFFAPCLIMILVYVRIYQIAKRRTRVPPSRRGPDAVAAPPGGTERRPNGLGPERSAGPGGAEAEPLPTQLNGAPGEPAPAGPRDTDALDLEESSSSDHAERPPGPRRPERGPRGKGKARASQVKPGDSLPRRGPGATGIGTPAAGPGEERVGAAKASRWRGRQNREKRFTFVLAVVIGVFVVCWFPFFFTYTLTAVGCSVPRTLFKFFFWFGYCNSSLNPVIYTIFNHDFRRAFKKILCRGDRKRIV
Experiment: Radioligand binding, adrenergic α2A (Protocol Group B)
Set-up: purchased Milipore (Millipore)
Conditions: 0.1 μM compound; Protocol Group B; read-out: Percentage inhibition of ligand binding, Adrenergic α2A (0.1 μM)
How it was run: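 Compounds (1% DMSO vehicle, various concentrations) competed against 2 nM [^3H]MK-912 on recombinant receptor membranes for 60 min at 25° C, Tris-HCl pH 7.4 buffer with Mg2+, Ca2+, BSA. Bound radioligand filtered and counted; 10 μM rauwolscine set nonspecific binding. Values: percent inhibition of specific binding or estimated Ki.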

Compound | inhibition at 0.1 µM [%]
Cc1ccc2c(c1)c1c(n2CC(O)c2ccncc2)CNC2CCCC12 (single isomer, unassigned) [34c] | 4
Cc1ccc2c(c1)c1c(n2CC(C)(O)c2ccc(F)cc2)CC2CCC1N2C (single isomer, unassigned) [102b] | -1
CC(O)(Cn1c2c(c3cc(C(F)(F)F)ccc31)CN1CCCC1C2)c1cccnc1 (single isomer, unassigned) [85a] | -12
Cc1cc(F)cc2c3c(n(CC(C)(O)c4cccnc4)c12)CC1CCCN1C3 (single isomer, unassigned) [76d] | 24
CC(O)(Cn1c2c(c3cc(Cl)cc(F)c31)CN1CCCC1C2)c1cccnc1 (single isomer, unassigned) [63c] | 8
CC(O)(Cn1c2c(c3cc(Cl)cc(F)c31)CN1CCCC1C2)c1ccncc1 (single isomer, unassigned) [86c] | -10

Same assay, conditions: 0.3 μM compound; Protocol Group B; read-out: Percentage inhibition of ligand binding, Adrenergic α2A (0.3 μM)

Compound | inhibition at 0.3 µM [%]
Cc1ccc2c(c1)c1c(n2CC(O)c2ccncc2)CNC2CCCC12 (single isomer, unassigned) [34c] | 11
Cc1ccc2c(c1)c1c(n2CC(C)(O)c2ccc(F)cc2)CC2CCC1N2C (single isomer, unassigned) [102b] | 23
CC(O)(Cn1c2c(c3cc(C(F)(F)F)ccc31)CN1CCCC1C2)c1cccnc1 (single isomer, unassigned) [85a] | -4
Cc1cc(F)cc2c3c(n(CC(C)(O)c4cccnc4)c12)CC1CCCN1C3 (single isomer, unassigned) [76d] | 30
CC(O)(Cn1c2c(c3cc(Cl)cc(F)c31)CN1CCCC1C2)c1cccnc1 (single isomer, unassigned) [63c] | 36
CC(O)(Cn1c2c(c3cc(Cl)cc(F)c31)CN1CCCC1C2)c1ccncc1 (single isomer, unassigned) [86c] | 9

Same assay, conditions: Protocol Group B; estimated Ki

Compound | Ki [nM]
Cc1ccc2c(c1)c1c(n2CC(O)c2ccncc2)CNC2CCCC12 (single isomer, unassigned) [34c] | 5160

Target: T2, Human adrenergic α2B receptor
Experiment: β-Arrestin GPCR functional assay, adrenergic α2B (Protocol B)
Format: cell-based
Conditions: IC50 Adrenergic α2B, β-arrestin, antagonist vs nor-epinephrine EC80
Procedure: To evaluate the activity of compounds in β-Arrestin GPCR functional assays, recombinant CHO cell line (DiscoveRX), over expressed with human adrenergic α2B receptor were used. The experiment was done with kit of DiscoveRX as per recommended protocol of the supplier. Cells were harvested from culture flask using cell dissociation solution (CDS) and plated at a density of 12,000 cells/well in CP reagent (supplied with the kit) in a half area 96-well white polystyrene plate. After 24 h incubation at 37° C., compounds at various concentrations in 1% (final) DMSO were charged to the cells for 30 min at 37° C. Active nor-epinephrine (-NE) at its EC80 concentrations (50 nM) were then added to the cells and incubated for another 90 min at 37° C. Detection mix was prepared by mixing of Path Hunter cell assay buffer, Emerald II solution and Galactone star solution in a ratio of 19:5:1 and incubated with the cells for 60 min at RT in the dark. The reading was taken in Envision at luminescence mode. Biochemical assay results are presented as the percent Inhibition in Table B2a, or IC50 values in Table B2b.

Compound | IC50 [nM]
Cc1ccc2c(c1)c1c(n2CC(C)(O)c2ccc(F)cc2)CC2CCC1N2C (single isomer, unassigned) [102b] | 412

Same assay, conditions: β-arrestin, antagonist vs nor-epinephrine EC80; read-out: IC50 Adrenergic α2B

Compound | IC50 [nM]
Cc1ccc2c(c1)c1c(n2CC(O)c2ccncc2)CNC2CCCC12 (single isomer, unassigned) [34c] | 251
CC(O)(Cn1c2c(c3cc(C(F)(F)F)ccc31)CN1CCCC1C2)c1cccnc1 (single isomer, unassigned) [85a] | 832
Cc1cc(F)cc2c3c(n(CC(C)(O)c4cccnc4)c12)CC1CCCN1C3 (single isomer, unassigned) [76d] | 261
CC(O)(Cn1c2c(c3cc(Cl)cc(F)c31)CN1CCCC1C2)c1cccnc1 (single isomer, unassigned) [63c] | 692
CC(O)(Cn1c2c(c3cc(Cl)cc(F)c31)CN1CCCC1C2)c1ccncc1 (single isomer, unassigned) [86c] | 699
